Experimental data from patent publication US20260116845A1, “LIPIDS AND COMPOSITIONS THEREOF” (Kernal Biologics, Inc., priority 2023, published 2026).

Key:
[1] = Formulation of mRNA encapsulated lipid nanoparticles (microfluidic mixing, ribogreen assay); format: physicochemical; details: Table 4
Experimental: mRNA encapsulated lipid nanoparticles (mRNA LNPs) were formulated using microfluidic mixing with a PNI Ignite instrument. Briefly, lipids (ionizable: structural: helper: PEG) were dissolved in ethanol and mixed with and aqueous solution of mRNA. These mRNA-loaded dispersions were then neutralized via a buffer exchange with a pre-determined buffer overnight. Afterwards, formed LNPs were concentrated with Amicon filter centrifugation, filtered, concentration of mRNA determined through a ribogreen assay, and frozen at −80° C. until use.

AML12 Cell Line = test: Transfection of AML12 Cell Line with FLuc mRNA LNPs (ONE-Glo EX luciferase signal); format: cell-based; details: 200 ng Fluc mRNA-LNP, 24 hours; Table 4
Method in brief: (§1)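 LNPs (ionizable/structural/helper/PEG lipids, microfluidic mixing, mRNA quantified by RiboGreen) pre-incubated 30 min with mouse serum, then added at 200 ng mRNA per well in Opti-MEM to B16F10, MC38.K (5,000 cells/well) or AML12 (20,000 cells/well). Luminescence read after 24 h transfection.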

B16F10 Cell Line = test: Transfection of B16F10 Cell Line with FLuc mRNA LNPs (ONE-Glo EX luciferase signal); format: cell-based; details: 200 ng Fluc mRNA-LNP, 24 hours; Table 4
Method in brief: as §1

MC38.K Cell Line = test: Transfection of MC38.K Cell Line with FLuc mRNA LNPs (ONE-Glo EX luciferase signal); format: cell-based; details: 200 ng Fluc mRNA-LNP, 24 hours; Table 4
Method in brief: as §1

Liver = test: Ex-vivo luminescence signal from liver after IV Fluc mRNA LNPs in CD1 mice (IVIS); details: tail vein 1.0 mg/kg Day 0 and Day 2, imaging 18 hours after second dose, Table 4
[2] = system: Macaca fascicularis Cynomolgus monkeys; test: NHP study 2: weekly IV infusion of hEPO mRNA-LNP; format: in vivo; details: weekly IV infusion 0.1 mg/kg hEPO mRNA-LNP
Experimental: Male cynomolgus monkeys (Biomere, Richmond CA) were 4-6 years old and weighed 4-7 kg at the initiation of dosing. Monkeys were housed in stainless steel cages and provided with Monkey Diet 5038 daily except during times of fasting. Filtered tap water was provided to the animals ad libitum including during fasting times. Temperature of the animal room was kept between 64-84° F., humidity of 30-70%, and with a light/dark cycle of 12 hours except during designated procedures. Pre-dosing treatment with Famotidine (0.5 mg/kg), Diphenhydramine (5 mg/kg), and Dexamethasone (1 mg/kg) was performed prior to dosing of LNPs. Animals received weekly intravenous IV infusions of human erythropoietin encapsulated mRNA lipid nanoparticles (Compound 23, hEPO mRNA-LNP, 0.1 mg/kg). A total of four doses were administered. Prior and after dosing, body weights and temperature were monitored and blood samples were collected pre-dose, 2, 6, 24, 48, and 168 hours. All procedures were conducted according to the approved IACUC guidelines. The results are shown in FIG. 14, FIG. 15, FIG. 16, and FIG. 17.

Balb/c mice = test: Multi-dose tolerability screening of NT-beta-Actin mRNA LNPs in naive Balb/c mice; format: in vivo; details: 1.0 mg/kg IV twice a week for four weeks
Experimental: Multi-dose Tolerability Screening of Compound 23-LNPs: Compound 23 and Benchmark 1 were formulated using a standard process method and injected (1.0 mg/kg, IV) twice a week for four weeks into naïve Balb/c mice. NT-beta-Actin mRNA LNPs were administered IV to Balb/c mice via the tail vein for a total of eight doses (twice a week for four consecutive weeks) at a concentration of 1.0 mg/kg. Bodyweights were monitored and blood was collected pre-dose, 24 hours post first dose, 24 hours post-fourth dose, and 24 hours post-eighth dose and analyzed for cytokines, blood chemistry, and liver/spleen weights. Data analysis was performed in Graphpad Prism 10. Values are reported as mean+/−standard deviation, unless specified otherwise. […] N=6 per group.

MC38.K tumors = test: Intratumor delivery of Firefly Luciferase mRNA-LNPs in MC38.K tumor-bearing mice (IVIS); format: in vivo; details: Albino B6 mice, MC38.K tumors 250 mm^3, 1.0 mg/kg intratumoral, IVIS 18 hours post dose
Experimental: Intratumor Delivery of Compound 23 versus Benchmark 1. Albino B6 mice were inoculated with MC38.K cancer cells. Once tumors reached 250 mm^3, 1.0 mg/kg of Firefly Luciferase mRNA-LNPs containing either Benchmark 1 or Compound 23 as the ionizable lipid component was dosed intratumorally. Takedown and IVIS imaging were performed 18 hours post dose. N=5 mice per group.

C57BL/6 mice = test: Multi-dose tolerability screening of NT-beta-Actin mRNA LNPs in MC38.K-inoculated C57BL/6 mice; format: in vivo; details: C57BL/6 mice with MC38.K, 1.0 mg/kg IV twice a week for two weeks
Experimental: NT-beta-Actin mRNA LNPs with different ionizable lipids were administered IV to C57BL/6 mice, inoculated with MC38.K cells, via the tail vein for a total of four doses (twice a week for two consecutive weeks) at a concentration of 1.0 mg/kg. Bodyweights were monitored and blood was collected pre-dose, 24 hours post first dose, 24 hours post fourth dose, and analyzed for cytokines, blood chemistry, and liver/spleen weights. Compounds 23, 99 and 101 were formulated using a peripheral process method. C57BL/6 mice were inoculated with MC38.K cells. Once tumors had grown, 1.0 mg/kg (Beta-Actin mRNA) of each LNP was intravenously administered twice a week for two weeks. […] N=6 per group for bodyweights, N=3 for blood analysis. Mean+/−SD.

SMILES: CCCCCCCCCOC(=O)CCCCCCCN(CCF)CCCCCCCC(=O)OC(CCCCCCCC)CCCCCCCC [Compound 43]
- mRNA encapsulation in LNP [1]: Inherent Lipid Properties Result in No mRNA Encapsulation

SMILES: CCCCCCCCCOC(=O)CCCCCCCN(CCO)CCCCCCCC(=O)OC(CCCCCCCC)CCCCCCCCF (stereo not shown) [Compound 23]
- Total Luciferin Signal (RLU) In Vitro - AML12 (AML12 Cell Line): 4.66E+05 RLU
- Total Luciferin Signal (RLU) In Vitro - B16F10 (B16F10 Cell Line): 9.60E+05 RLU
- Total Luciferin Signal (RLU) In Vitro - MC38.K (MC38.K Cell Line): 2.00E+06 RLU
- Total Liver Tissue Luciferin Signal (Photons/s) Ex-vivo - CD1 (Liver): 5.15E+09 Photons/s
- tolerability (body weight, temperature, liver blood chemistry) ([2]; 4 doses): reasonable tolerability
- generation of red blood cells (hematocrit, absolute reticulocyte counts) ([2]; four doses): consistent generation of red blood cells over four repeated doses
- hEPO protein expression over repeated doses ([2]; four doses): consistent protein expression over repeated doses
- clearance of the lipid from blood / serum ([2]; repeated doses): cleared from the blood without any observation of accumulation over repeated doses
- bodyweights or survival rate (Balb/c mice; among Compound 23, Benchmark 1 and delivery buffer): Comparable bodyweights or survival rate
- tolerability (Balb/c mice; versus delivery buffer): comparable tolerability
- intratumor delivery performance (MC38.K tumors): comparable delivery performance as that of Benchmark 1
- survival (C57BL/6 mice): all mice survived
